# In US9107954B2, “Bivalent ligands for the treatment of neurological disorders” (Virginia Commonwealth University, priority 2012, dated 2015):
# Assays:
# CCR5 [1] = target: T1, CCR5 (Homo sapiens (Human), UniProt P51681); assay: Calcium mobilization assay in MOLT-4/CCR5 cells, RANTES-stimulated (Example 1); assay type: cell-based; details: CCR5/MOLT-4 cells
# Experimental: The ligands were first tested with various doses (in the range of 0.1 nM to 1 μM) for possible agonist activity. The protocol was the same for the following antagonism study, except no CCL5 (RANTES) was added. MOLT-4/CCR5 cells were plated in black 96-well plates with transparent bottom (Greinier Bio-one) at 100,000 cells per well in 50:1 HBSS:HEPES assay buffer. They were incubated for 1 hour at 37° C. and 5% CO2 with control buffer or varying concentration of ligand for a total volume of 130 μL per well. Cells were then incubated with 50 μL of Fluo-4-AM loading buffer (40 μL 2 μM Fluo-4 dye, 100 μL 2.5 mM probenacid, in 5 mL assay buffer) for an additional hour. Then 20μL 200 nM RANTES solution in assay buffer or assay buffer alone were added to the wells right before changes in Ca^2+ concentration were monitored by RFU for 90 seconds using a microplate reader (FlexStation3, Molecular Devices). Peak values were obtained using SoftMaxPro software (Molecular Devices) and non-linear regression curves were generated using Prism (GraphPad) to calculate IC50 values.
# mu opioid receptor (MOR) = mu opioid receptor (MOR) (Homo sapiens (Human), UniProt P35372); assay: MOR competitive radioligand binding, [3H]naloxone, hMOR-expressed CHO cells; details: Example 1, read-out: binding affinity to the mu opioid receptor, Ki
# Experimental: MOR/CHO cell culture and membrane homogenate preparation followed literature report^52.
# Saturation binding was performed by incubating membranes for 90 minutes at 30° C. with 0.5-15 nM [^3H]naloxone in assay buffer in a 0.5 mL volume. […] The reaction was terminated by rapid filtration through Whatman GF/B glass fiber filters, followed by 3 washes with 3 mL ice-cold Tris buffer. Bound radioactivity will be determined by liquid scintillation spectrophotometry at 45% efficiency for [^3H].
# For competition binding assay (agonists or antagonists), Hill plots linear regression analysis and the Cheng-Prusoff equation were applied to determine the IC50 and Ki values. In [^35S]GTPγS binding assays, agonist concentration effect curves were fit by non-linear regression to obtain Emax and EC50 values; antagonist inhibition of agonist-stimulated [^35S]GTPγS binding was analyzed by Hill analysis and AD50 values were corrected to Ki values using the Cheng-Prusoff equation. All analyses were using Prism 4.0.
# Herein is reported the characterization of this novel molecular probe in for its binding affinity, Ca^2+ flux functional activity, and HIV-1 inhibition potency.
# [2] = tested on: R5-tropic HIV-1Bal Vpr-GFP in primary astroglial cells; assay: Confocal microscopy of HIV-1Bal Vpr-GFP entry into astroglial cells; assay type: cell-based; details: 100 nM, 18 to 20 h
# Experimental: For direct visualization of viral entry, fluorescent HIV-1 particles were generated by co-transfection of a vector containing a full-length R5-tropic HIV-1 provirus (NIH AIDS Research & Reference Reagent Program, Division of AIDS, NIAID, NIH: pWT/BaL (catalog #11414) and Vpr-GFP into HEK-293T cells as described in [9]. Primary astroglial cells were infected with the HIV-1 Vpr-GFP particles in the absence or presence of 100 nM bivalent ligand for 18 to 20 h at 37° C., washed in PBS, fixed with 4% paraformaldehyde, and counterstained with DAPI. Cells were imaged using a Zeiss LSM 700 laser scanning confocal microscope equipped with a 63×(1.42 numerical aperture [NA]) objective, using 488-nm laser excitation with dichroic beam-splitter set at 492 nm to optimize GFP detection.
# CCR5 [3] = assay: Flow cytometry of CCR5 immunofluorescence in HIV-1 infected primary human astrocytes; assay type: cell-based; details: maraviroc co-exposure; bivalent ligand ± morphine
# Experimental: MOR and CCR5 immunoreactivity were detected by direct immunofluorescence in astroglial cells by flow cytometric analysis. Cells were washed in phosphate-buffered saline (PBS)-0.1% bovine serum albumin (BSA) buffer and incubated with primary MOR antibody followed by a secondary antibody conjugated to allophycocyanin (APC) (Biolegend, Inc; catalog #408001) and Alexa Fluor® 488 conjugated anti-mouse CD195 (CCR5) antibody (Biolegend, Inc; catalog #107008) in permeabilization buffer (PBS-0.1% BSA-0.1% Triton X-100) at a 1:500 dilution. Fluorescence was measured from 10,000 gated cells per treatment in each experiment using a FACSCanto II flow cytometer (BD Biosciences, San Jose, Calif.). Auto-fluorescence was compensated by setting the detector voltage to the minimum level that discriminates between auto-fluorescence and specific immunofluorescence in both negative and positive controls. Isotype control antibodies were used to define settings in histogram plot analyses.
# We quantitatively analyzed the effect of MVC and the bivalent compound on CCR5 and MOR expression levels in virally infected astrocytes by flow cytometry. […] Approximately 20,000 events were analyzed per treatment condition in each experiment and size discrimination was used as a crude method for viability determination.
# RANTES = assay: Chemokine release ELISA, HIV-1 infected astroglia supernatant: RANTES; assay type: cell-based, human; details: 18-20 h; bivalent ligand ± morphine
# Experimental: The protein levels of the cytokines TNF-α, IL-6, IL-1β and the chemokine RANTES were measured by ELISA (Quantikine kits; R&D Systems Minneapolis, Minn.).
# After 18-20 h exposure, supernatant was removed and analyzed by ELISA to quantitatively analyze the release of the cytokines TNF-α, IL-1β and IL-6 and the chemokine RANTES.
# HIV-1 in microglia = assay: HIV-1 entry in microglia (data not shown); assay type: cell-based; details: at the concentrations used (100 nM)
# MOR = MOR (Homo sapiens (Human), UniProt P35372); assay: Calcium mobilization assay, CCR5-MOR CHO co-expressed cell line (Gqi5), DAMGO-stimulated; assay type: cell-based
# Experimental: (§1) Having a cell line that consistently expresses both CCR5 and MOR was essential for studying how the two receptors interact with each other using calcium mobilization assays and cell fusion assays. A previously established MOR Chinese hamster ovarian (CHO) cell line was transfected with a plasmid containing CCR5 tagged with a yellow fluorescent protein on its N-terminus (CCR5-YFP). ^1 After 48 hours cells were sorted based upon the presence of the yellow fluorescent protein tag using a flow cytometer. Cells containing the tagged receptors were then cultured and used in the subsequent assays.
# (§2) Calcium mobilization is directly related to G protein-coupled receptor (GPCR) activation and therefore is a useful technique to study the functional activity of new ligands.
# CCR5 [4] = target: T1, CCR5; assay: Calcium mobilization assay, CCR5-MOR CHO co-expressed cell line (Gqi5), RANTES-stimulated; assay type: cell-based; details: cells stimulated with RANTES
# Experimental: as §1, §2
# CCR5 [5] = target: CCR5 (Macaca mulatta (Rhesus macaque), UniProt P61813); assay: CCR5 competitive radioligand binding, [125I]MIP-1α, Chem-1 cell membrane preparations; details: mean of three experiments, read-out: Radioligand binding Ki ± SEM
# Experimental: Afterwards, the pharmacological profile of bivalent ligand 1 at the chemokine receptor CCR5 was characterized similarly. The competitive radioligand binding assay was conducted in CCR5 rhesus macaque membrane preparations from Chem-1 cells.
# T1 sequence (P51681 whole entry): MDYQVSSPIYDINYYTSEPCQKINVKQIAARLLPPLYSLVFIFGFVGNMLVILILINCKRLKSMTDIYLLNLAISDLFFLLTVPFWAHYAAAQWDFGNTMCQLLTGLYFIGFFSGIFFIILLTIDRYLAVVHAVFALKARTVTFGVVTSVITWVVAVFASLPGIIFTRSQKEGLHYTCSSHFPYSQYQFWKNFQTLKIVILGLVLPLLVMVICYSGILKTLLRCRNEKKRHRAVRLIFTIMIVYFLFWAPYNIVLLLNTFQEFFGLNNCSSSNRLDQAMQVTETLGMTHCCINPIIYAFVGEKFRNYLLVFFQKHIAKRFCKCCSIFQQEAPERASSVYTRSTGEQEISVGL
structure (smiles),measurement,setting,value
Cc1nnc(C(C)C)n1C1CC2CCC(C1)N2CC[C@H](NC(=O)C1CCC(F)(F)CC1)c1ccc(NC(=O)COCC(=O)NCCCCCCCNC(=O)COCC(=O)N[C@@H]2CC[C@@]3(O)[C@H]4Cc5ccc(O)c6c5[C@@]3(CCN4CC3CC3)[C@H]2O6)cc1 (stereo partly shown) [bivalent ligand 1],IC50,"CCR5 [1]; RANTES, read-out: calcium flux inhibition IC50",231 ± 88 nM
same,agonism in calcium mobilization assay,CCR5 [1]; no RANTES added,no agonism
same,Ki,mu opioid receptor (MOR),51.8 ± 7.9 nM
same,viral entry by confocal microscopy,[2],abolished viral entry
same,fold decrease in CCR5 expression levels compared to R5 HIV-1,CCR5 [3],1.8 fold
same,fold decrease in RANTES release compared to R5 HIV-1 alone,RANTES,1.5 fold
same,antiviral effect in microglia,HIV-1 in microglia,only detected in astrocytes and not in microglia
same,IC50,MOR,30 ± 2.44 nM
same,IC50,CCR5 [4],6240 ± 251 nM
same,Ki,CCR5 [5],239 ± 56 nM
